Calls of active or inactive are those of the source. The rule behind the calls is not given here.
System: CCRIS mutagenicity, Ames/micronucleus/aberration tests
Assay: CCRIS mutagenicity studies
[1] = Test System: AMES SALMONELLA TYPHIMURIUM, Strain/Indicator: TA98, Metabolic Activation: NONE, Method: PREINCUBATION
[2] = Test System: AMES SALMONELLA TYPHIMURIUM, Strain/Indicator: TA100, Metabolic Activation: NONE, Method: PREINCUBATION
[3] = Test System: AMES SALMONELLA TYPHIMURIUM, Strain/Indicator: TA1535, Metabolic Activation: NONE, Method: PREINCUBATION
[4] = Test System: AMES SALMONELLA TYPHIMURIUM, Strain/Indicator: TA1537, Metabolic Activation: NONE, Method: PREINCUBATION

Measured: mutagenic call

[CH3][Hg+]
inactive: Test System: AMES SALMONELLA TYPHIMURIUM, Strain/Indicator: TA97, Metabolic Activation: HAMSTER, LIVER, S-9, AROCLOR 1254 (10%), Method: PREINCUBATION inactive; negative | Test System: AMES SALMONELLA TYPHIMURIUM, Strain/Indicator: TA97, Metabolic Activation: HAMSTER, LIVER, S-9, AROCLOR 1254 (30%), Method: PREINCUBATION inactive; negative | Test System: AMES SALMONELLA TYPHIMURIUM, Strain/Indicator: TA97, Metabolic Activation: NONE, Method: PREINCUBATION inactive; negative | Test System: AMES SALMONELLA TYPHIMURIUM, Strain/Indicator: TA97, Metabolic Activation: RAT, LIVER, S-9, AROCLOR 1254 (10%), Method: PREINCUBATION inactive; negative | Test System: AMES SALMONELLA TYPHIMURIUM, Strain/Indicator: TA97, Metabolic Activation: RAT, LIVER, S-9, AROCLOR 1254 (30%), Method: PREINCUBATION inactive; negative | Test System: AMES SALMONELLA TYPHIMURIUM, Strain/Indicator: TA98, Metabolic Activation: HAMSTER, LIVER, S-9, AROCLOR 1254 (10%), Method: PREINCUBATION inactive; negative | Test System: AMES SALMONELLA TYPHIMURIUM, Strain/Indicator: TA98, Metabolic Activation: HAMSTER, LIVER, S-9, AROCLOR 1254 (30%), Method: PREINCUBATION inactive; negative | [1] inactive; negative | Test System: AMES SALMONELLA TYPHIMURIUM, Strain/Indicator: TA98, Metabolic Activation: RAT, LIVER, S-9, AROCLOR 1254 (10%), Method: PREINCUBATION inactive; negative | Test System: AMES SALMONELLA TYPHIMURIUM, Strain/Indicator: TA98, Metabolic Activation: RAT, LIVER, S-9, AROCLOR 1254 (30%), Method: PREINCUBATION inactive; negative | Test System: AMES SALMONELLA TYPHIMURIUM, Strain/Indicator: TA100, Metabolic Activation: HAMSTER, LIVER, S-9, AROCLOR 1254 (10%), Method: PREINCUBATION inactive; negative | Test System: AMES SALMONELLA TYPHIMURIUM, Strain/Indicator: TA100, Metabolic Activation: HAMSTER, LIVER, S-9, AROCLOR 1254 (30%), Method: PREINCUBATION inactive; negative | [2] inactive; negative | Test System: AMES SALMONELLA TYPHIMURIUM, Strain/Indicator: TA100, Metabolic Activation: RAT, LIVER, S-9, AROCLOR 1254 (10%), Method: PREINCUBATION inactive; negative | Test System: AMES SALMONELLA TYPHIMURIUM, Strain/Indicator: TA100, Metabolic Activation: RAT, LIVER, S-9, AROCLOR 1254 (30%), Method: PREINCUBATION inactive; negative | Test System: AMES SALMONELLA TYPHIMURIUM, Strain/Indicator: TA1535, Metabolic Activation: HAMSTER, LIVER, S-9, AROCLOR 1254 (10%), Method: PREINCUBATION inactive; negative | Test System: AMES SALMONELLA TYPHIMURIUM, Strain/Indicator: TA1535, Metabolic Activation: HAMSTER, LIVER, S-9, AROCLOR 1254 (30%), Method: PREINCUBATION inactive; negative | [3] inactive; negative | Test System: AMES SALMONELLA TYPHIMURIUM, Strain/Indicator: TA1535, Metabolic Activation: RAT, LIVER, S-9, AROCLOR 1254 (10%), Method: PREINCUBATION inactive; negative | Test System: AMES SALMONELLA TYPHIMURIUM, Strain/Indicator: TA1535, Metabolic Activation: RAT, LIVER, S-9, AROCLOR 1254 (30%), Method: PREINCUBATION inactive; negative | Test System: AMES SALMONELLA TYPHIMURIUM, Strain/Indicator: TA1537, Metabolic Activation: HAMSTER, LIVER, S-9, AROCLOR 1254 (30%), Method: PREINCUBATION inactive; negative | [4] inactive; negative | Test System: AMES SALMONELLA TYPHIMURIUM, Strain/Indicator: TA1537, Metabolic Activation: RAT, LIVER, S-9, AROCLOR 1254 (30%), Method: PREINCUBATION inactive; negative

CNCC(O)c1ccc(O)c(O)c1 (configuration not stated)
inactive: Test System: AMES SALMONELLA TYPHIMURIUM, Strain/Indicator: TA102, Metabolic Activation: NONE, Method: STANDARD PLATE inactive; negative | Test System: AMES SALMONELLA TYPHIMURIUM, Strain/Indicator: TA2638, Metabolic Activation: NONE, Method: STANDARD PLATE inactive; negative | Test System: E. COLI, Strain/Indicator: WP2 (PKM101), Metabolic Activation: NONE, Method: STANDARD PLATE inactive; negative | Test System: E. COLI, Strain/Indicator: WP2 UVRA (PKM101), Metabolic Activation: NONE, Method: STANDARD PLATE inactive; negative

CCOCn1cc(F)c(=O)n(C(=O)c2cccc(C(=O)Oc3nc(OC(=O)c4ccccc4)ccc3C#N)c2)c1=O
inactive: [1] inactive; negative | Test System: AMES SALMONELLA TYPHIMURIUM, Strain/Indicator: TA98, Metabolic Activation: S-9, Method: PREINCUBATION inactive; negative | [2] inactive; negative | Test System: AMES SALMONELLA TYPHIMURIUM, Strain/Indicator: TA100, Metabolic Activation: S-9, Method: PREINCUBATION inactive; negative | [3] inactive; negative | Test System: AMES SALMONELLA TYPHIMURIUM, Strain/Indicator: TA1535, Metabolic Activation: S-9, Method: PREINCUBATION inactive; negative | [4] inactive; negative | Test System: AMES SALMONELLA TYPHIMURIUM, Strain/Indicator: TA1537, Metabolic Activation: S-9, Method: PREINCUBATION inactive; negative | Test System: E. COLI, Strain/Indicator: WP2 UVRA, Metabolic Activation: NONE, Method: PREINCUBATION inactive; negative | Test System: E. COLI, Strain/Indicator: WP2 UVRA, Metabolic Activation: S-9, Method: PREINCUBATION inactive; negative

Reference: PubChem BioAssay AID1259407 (Chemical Carcinogenesis Research Information System (CCRIS), 2018)
